Where a name gives a salt, the structure may show the parent alone.
Tests used:
[1] = molecular target: isolated recombinant JAK1 kinase domain (Homo sapiens (Human), UniProt P23458); assay: JAK1 enzyme assay (Caliper LabChip, peptide phosphorylation); format: biochemical; details: isolated recombinant JAK1 kinase domain, 25 μM ATP
[2] = molecular target: isolated recombinant JAK2 kinase domain (Homo sapiens (Human), UniProt O60674); assay: JAK2 enzyme assay (Caliper LabChip, peptide phosphorylation); format: biochemical; details: 25 μM ATP
Chain of isolated recombinant JAK2 kinase domain (O60674 849-1124): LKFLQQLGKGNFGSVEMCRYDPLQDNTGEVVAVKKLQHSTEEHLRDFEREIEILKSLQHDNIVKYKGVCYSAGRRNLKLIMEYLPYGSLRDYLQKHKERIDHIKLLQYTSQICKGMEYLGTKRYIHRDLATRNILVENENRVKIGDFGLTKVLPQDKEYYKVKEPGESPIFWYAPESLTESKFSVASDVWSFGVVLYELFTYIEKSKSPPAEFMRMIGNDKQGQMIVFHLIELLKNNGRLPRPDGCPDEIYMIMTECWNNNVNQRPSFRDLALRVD

[3] = system: JAK1-dependent STAT6 phosphorylation downstream of IL-13 stimulation in TF-1 human erythroleukemia cells; assay: JAK1 pathway assay in TF-1 cells (IL-13-pSTAT6, MSD); format: cell-based; details: Homo sapiens, TF-1, TF-1 cells, read-out: IL13-pSTAT6 EC50_TF-1
Procedure: JAK1 Pathway Assay in Cell Lines was Carried Out as Follows:
Inhibitor potency (EC50) was determined in cell-based assays designed to measure JAK1 dependent STAT phosphorylation.
In one assay approach, TF-1 human erythroleukemia cells obtained from the American Type Culture Collection (ATCC; Manassas, Va.) were used to measure JAK1-dependent STAT6 phosphorylation downstream of IL-13 stimulation. Prior to use in the assays, TF-1 cells were starved of GM-CSF overnight in OptiMEM medium (Life Technologies, Grand Island, N.Y.) supplemented with 0.5% charcoal/dextran stripped fetal bovine serum (FBS), 0.1 mM non-essential amino acids (NEAA), and 1 mM sodium pyruvate. The assays were run in 384-well plates in serum-free OptiMEM medium using 300,000 cells per well. In a second assay approach, BEAS-2B human bronchial epithelial cells obtained from ATCC were plated at 100,000 cells per well of a 96-well plate one day prior to the experiment. The BEAS-2B assay was run in complete growth medium (bronchial epithelial basal medium plus bulletkit; Lonza; Basel, Switzerland).
Test compounds were serially diluted 1:2 in DMSO and then diluted 1:50 in medium just before use. Diluted compounds were added to the cells, for a final DMSO concentration of 0.2%, and incubated for 30 min (for the TF-1 assay) or 1 hr (for the BEAS-2B assay) at 37° C. Then, cells were stimulated with human recombinant cytokine at their respective EC90 concentrations, as previously determined for each individual lot. Cells were stimulated with IL-13 (R&D Systems, Minneapolis, Minn.) for 15 min at 37° C. The TF-1 cell reactions were stopped by the direct addition of 10× lysis buffer (Cell Signaling Technologies, Danvers, Mass.), whereas the BEAS-2B cell incubations were halted by the removal of medium and addition of 1× lysis buffer. The resultant samples were frozen in the plates at −80° C. Compound mediated inhibition of STAT6 phosphorylation was measured in the cell lysates using MesoScale Discovery (MSD) technology (Gaithersburg, Md.).

Chain of isolated recombinant JAK1 kinase domain (P23458 875-1153): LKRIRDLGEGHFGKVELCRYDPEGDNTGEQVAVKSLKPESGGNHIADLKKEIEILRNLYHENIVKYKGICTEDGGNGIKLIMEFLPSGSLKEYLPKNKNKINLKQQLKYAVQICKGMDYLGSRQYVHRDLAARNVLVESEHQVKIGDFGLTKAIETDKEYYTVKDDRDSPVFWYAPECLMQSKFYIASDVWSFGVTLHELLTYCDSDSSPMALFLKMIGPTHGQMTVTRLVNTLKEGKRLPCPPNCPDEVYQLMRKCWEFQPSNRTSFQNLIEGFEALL

Compound	Ki [1]	Ki [2]	EC50 [3]
O=C(Nc1cn(C2CCNCC2)nc1-c1cc(Cl)ccc1OC(F)F)c1cnn2cccnc12 [Example 1, Pyrazolo[1,5-a]pyrimidine-3-carboxylic acid [3-(5-chloro-2-difluoromethoxyphenyl)-1-piperidin-4-yl-1H-pyrazol-4-yl]amide hydrochloride]	1.62 nM	0.46 nM	21.1 nM
CN(C)C(=O)N1CCC(CN2C[C@@H]3CN(C(=O)Cn4cc(NC(=O)c5cnn6cccnc56)c(-c5cc(Cl)ccc5OC(F)F)n4)C[C@@H]3C2)CC1 [Example 36, N-[1-[2-[(3aR,6aS)-2-[[1-(dimethylcarbamoyl)-4-piperidyl]methyl]-1,3,3a,4,6,6a-hexahydropyrrolo[3,4-c]pyrrol-5-yl]-2-oxo-ethyl]-3-[5-chloro-2-(difluoromethoxy)phenyl]pyrazol-4-yl]pyrazolo[1,5-a]pyrimidine-3-carboxamide]	–	0.62 nM	57.6 nM
NC[C@@H]1CCCN1C(=O)Cn1cc(NC(=O)c2cnn3cccnc23)c(-c2cc(Cl)ccc2OC(F)F)n1 [Example 81, N-[1-[2-[(2S)-2-(aminomethyl)pyrrolidin-1-yl]-2-oxo-ethyl]-3-[5-chloro-2-(difluoromethoxy)phenyl]pyrazol-4-yl]pyrazolo[1,5-a]pyrimidine-3-carboxamide]	5.35 nM	–	253 nM
O=C(Nc1cn(CC(=O)N2CCC(NCCc3ccc(C(F)(F)F)cc3)CC2)nc1-c1cc(Cl)ccc1OC(F)F)c1cnn2cccnc12 [Example 93, N-[3-[5-chloro-2-(difluoromethoxy)phenyl]-1-[2-oxo-2-[4-[2-[4-(trifluoromethyl)phenyl]ethylamino]-1-piperidyl]ethyl]pyrazol-4-yl]pyrazolo[1,5-a]pyrimidine-3-carboxamide]	1.28 nM	–	95.9 nM
Nc1nn2cccnc2c1C(=O)Nc1cn(C2CCCNCC2)nc1-c1cc(Cl)ccc1OC(F)F (centres unmarked) [Example 171, 2-amino-N-[1-(azepan-4-yl)-3-[5-chloro-2-(difluoromethoxy)phenyl]pyrazol-4-yl]pyrazolo[1,5-a]pyrimidine-3-carboxamide]	–	0.17 nM	21.9 nM
CN1CC2(CCN(C(=O)Cn3cc(NC(=O)c4cnn5cccnc45)c(-c4cc(Cl)ccc4OC(F)F)n3)CC2)C1 [Example 218, N-[3-[5-chloro-2-(difluoromethoxy)phenyl]-1-[2-(2-methyl-2,7-diazaspiro[3.5]nonan-7-yl)-2-oxo-ethyl]pyrazol-4-yl]pyrazolo[1,5-a]pyrimidine-3-carboxamide]	1.01 nM	–	75.6 nM
O=C(Nc1cn(CC(=O)N2CCC3(CNC3)C2)nc1-c1cc(Cl)ccc1OC(F)F)c1cnn2cccnc12 [Example 219, N-[3-[5-chloro-2-(difluoromethoxy)phenyl]-1-[2-(2,6-diazaspiro[3.4]octan-6-yl)-2-oxo-ethyl]pyrazol-4-yl]pyrazolo[1,5-a]pyrimidine-3-carboxamide]	–	1.28 nM	1030 nM
CN1CC2(CCN(C(=O)Cn3cc(NC(=O)c4cnn5cccnc45)c(-c4cc(Cl)ccc4OC(F)F)n3)C2)C1 [Example 221, N-[3-[5-chloro-2-(difluoromethoxy)phenyl]-1-[2-(2-methyl-2,6-diazaspiro[3.4]octan-6-yl)-2-oxo-ethyl]pyrazol-4-yl]pyrazolo[1,5-a]pyrimidine-3-carboxamide]	0.92 nM	–	130 nM
CN1C[C@H]2C[C@@H]1CN2C(=O)Cn1cc(NC(=O)c2c(N)nn3cccnc23)c(-c2cc(Cl)ccc2OC(F)F)n1 [Example 252, 2-amino-N-[3-[5-chloro-2-(difluoromethoxy)phenyl]-1-[2-[(1R,4R)-5-methyl-2,5-diazabicyclo[2.2.1]heptan-2-yl]-2-oxo-ethyl]pyrazol-4-yl]pyrazolo[1,5-a]pyrimidine-3-carboxamide]	–	–	43 nM

Molecules with a lower EC50 [3], results first:

Ki [1]	Ki [2]	EC50 [3]	Compound
0.74 nM	–	6.9 nM	CN1CCC2CN(C(=O)Cn3cc(NC(=O)c4c(N)nn5cccnc45)c(-c4cc(Cl)ccc4OC(F)F)n3)CCC21 (centres unmarked) [Example 56, 2-amino-N-[3-[5-chloro-2-(difluoromethoxy)phenyl]-1-[2-(1-methyl-3,3a,4,6,7,7a-hexahydro-2H-pyrrolo[3,2-c]pyridin-5-yl)-2-oxo-ethyl]pyrazol-4-yl]pyrazolo[1,5-a]pyrimidine-3-carboxamide]
–	0.13 nM	15 nM	Nc1nn2cccnc2c1C(=O)Nc1cn(CC(=O)N2C[C@H]3CN(CC4CC4)C[C@H]3C2)nc1-c1cc(Cl)ccc1OC(F)F [Example 57, N-[1-[2-[(3aS,6aR)-2-(cyclopropylmethyl)-1,3,3a,4,6,6a-hexahydropyrrolo[3,4-c]pyrrol-5-yl]-2-oxo-ethyl]-3-[5-chloro-2-(difluoromethoxy)phenyl]pyrazol-4-yl]-2-amino-pyrazolo[1,5-a]pyrimidine-3-carboxamide]
0.55 nM	–	11.8 nM	Nc1nn2cccnc2c1C(=O)Nc1cn(C2CCN(CCCC(=O)N3CCOCC3)CC2)nc1-c1cc(Cl)ccc1OC(F)F [Example 147, 2-amino-N-[3-[5-chloro-2-(difluoromethoxy)phenyl]-1-[1-(4-morpholino-4-oxo-butyl)-4-piperidyl]pyrazol-4-yl]pyrazolo[1,5-a]pyrimidine-3-carboxamide]
–	–	3.5 nM	CN1CCC(n2cc(NC(=O)c3c(N)nn4cccnc34)c(-c3cc(Cl)ccc3OC(F)F)n2)CC1 [Example 184, 2-amino-N-[3-[5-chloro-2-(difluoromethoxy)phenyl]-1-(1-methyl-4-piperidyl)pyrazol-4-yl]pyrazolo[1,5-a]pyrimidine-3-carboxamide]
–	–	6.2 nM	CN(C)C1CCN(C(=O)C2CCN(c3nc(-c4cc(Cl)ccc4OC(F)F)c(NC(=O)c4cnn5cccnc45)s3)CC2)CC1 [Example 197, N-[4-[5-chloro-2-(difluoromethoxy)phenyl]-2-[4-[4-(dimethylamino)piperidine-1-carbonyl]-1-piperidyl]thiazol-5-yl]pyrazolo[1,5-a]pyrimidine-3-carboxamide]
1.5 nM	–	19.2 nM	O=C(Nc1sc(CN2CCCCC2)nc1-c1cc(Cl)ccc1OC(F)F)c1cnn2cccnc12 [Example 263, N-[4-[5-chloro-2-(difluoromethoxy)phenyl]-2-(1-piperidylmethyl)thiazol-5-yl]pyrazolo[1,5-a]pyrimidine-3-carboxamide]
0.49 nM	–	5.5 nM	O=C(Nc1cn(CC(=O)N2CCC[C@H]2CO)nc1-c1cc(Cl)ccc1OC(F)F)c1cnn2cccnc12 [Example 268, N-[3-[5-chloro-2-(difluoromethoxy)phenyl]-1-[2-[(2S)-2-(hydroxymethyl)pyrrolidin-1-yl]-2-oxo-ethyl]pyrazol-4-yl]pyrazolo[1,5-a]pyrimidine-3-carboxamide]
–	0.45 nM	2.2 nM	N#CC1(c2ccccc2)CCN(C(=O)Cn2cc(NC(=O)c3cnn4cccnc34)c(-c3cc(Cl)ccc3OC(F)F)n2)CC1 [Example 281, N-[3-[5-chloro-2-(difluoromethoxy)phenyl]-1-[2-(4-cyano-4-phenyl-1-piperidyl)-2-oxo-ethyl]pyrazol-4-yl]pyrazolo[1,5-a]pyrimidine-3-carboxamide]
